From patent US20220289698A1, “INHIBITORS OF HUMAN ATGL” (Karl-Franzens-Universität Graz, priority 2019, published 2022)
Read-outs that look alike come from different tables or passages of the source.

What was measured:
[1] = test system: differentiated hMADS adipocytes; test: Isoproterenol-stimulated lipolysis in differentiated hMADS adipocytes; type: cell-based; settings: Homo sapiens, Adipocyte, 2 h pretreatment, 1 μM isoproterenol 1 h
Experimental: Human differentiated hMADS adipocytes were pretreated with DMSO or ATGL inhibitors for 2 h. Subsequently, lipolysis was stimulated with 1 μM Isoproterenol for 1 h and fatty acid release was determined from media via NEFA Reagent (Wako Diagnostics). Samples were measured in triplicates.
Human differentiated hMADS adipocytes were pretreated with DMSO or ATGL inhibitors for 2 h. Subsequently, lipolysis was stimulated with 1 μM Isoproterenol for 1 h and glycerol release was determined from media via Free glycerol reagent (Sigma Aldrich). Samples were measured in triplicates.

[2] = test system: HepG2 cells; test: Toxicity screening (LDH) in HepG2 cells; type: cell-based, human; settings: 24 h treatment, LDH release
Experimental: (§1) HepG2 cells were seeded in 96 well plates and at 50% confluency treated with DMSO (0.5% final conc.) or ATGL Inhibitors for 24 h in DMEM+P/S+3% heat inactivated FCS (3 h at 62° C.). Subsequently, LDH activity of 50 μl medium was determined via the Roche LDH Kit. Samples measured in triplicates.

[3] = biological target: T1, human ATGL (Homo sapiens, UniProt Q96AD5); test: Ki determination, human ATGL lysates with increasing substrate concentrations; type: biochemical; settings: non-linear regression
T1 construct: made in house; host or cells: Expi cells (lysate, not purified)
T1 sequence (Q96AD5 1-504): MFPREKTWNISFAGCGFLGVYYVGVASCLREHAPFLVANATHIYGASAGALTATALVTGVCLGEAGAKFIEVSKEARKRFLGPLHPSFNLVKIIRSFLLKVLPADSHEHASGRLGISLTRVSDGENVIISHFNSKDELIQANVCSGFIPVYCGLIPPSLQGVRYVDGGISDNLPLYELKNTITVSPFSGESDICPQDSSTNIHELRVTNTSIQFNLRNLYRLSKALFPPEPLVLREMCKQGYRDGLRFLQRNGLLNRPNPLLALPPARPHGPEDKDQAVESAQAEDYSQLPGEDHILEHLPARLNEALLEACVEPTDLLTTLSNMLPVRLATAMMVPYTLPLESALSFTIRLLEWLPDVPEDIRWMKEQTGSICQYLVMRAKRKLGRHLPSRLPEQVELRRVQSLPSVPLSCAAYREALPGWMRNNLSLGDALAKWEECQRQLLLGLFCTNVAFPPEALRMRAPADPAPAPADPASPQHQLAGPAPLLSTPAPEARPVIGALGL
Experimental: For determination of Ki values, lysates from Expi cells overexpressing human ATGL were incubated with recombinant purified ATGL co-activator CGI-58 and ATGL inhibitors at a single concentration dependent on the previously determined IC50. Increasing concentrations of substrate containing radiolabeled triolein were added and liberated FA were extracted and quantified by liquid scintillation. Inhibitors were dissolved in DMSO which was used as control. Ki was determined via non-linear regression analysis. Samples were measured in triplicates.

[4] = test system: AML-12 cells; test: Toxicity screening (LDH) in AML-12 cells; type: cell-based, mouse; settings: 24 h treatment, LDH release
Experimental: as §1, with “AML-12” for “HepG2”, “80%” for “50%”, “Subsequently, medium was centrifuged at 300 g for 3 min, and” for “Subsequently,”, “supernatant” for “medium”

[5] = test system: differentiated 3T3-L1 adipocytes; test: Isoproterenol-stimulated lipolysis in differentiated 3T3-L1 adipocytes; type: cell-based; settings: Mus musculus, 2 h pretreatment
Experimental: Mouse differentiated 3T3-L1 adipocytes were pretreated with DMSO or ATGL inhibitors for 2 h. Subsequently, lipolysis was stimulated with 1 μM Isoproterenol for 1 h and fatty acid release was determined from media via NEFA Reagent (Wako Diagnostics). Samples were measured in triplicates.
Mouse differentiated 3T3-L1 adipocytes were pretreated with DMSO or ATGL inhibitors for 2 h. Subsequently, lipolysis was stimulated with 1 μM Isoproterenol for […] and glycerol release was determined from media via Free glycerol reagent (Sigma Aldrich). Samples were measured in triplicates.

[6] = 1 μM isoproterenol 1 h, fatty acid release, read-out: IC50 3T3 FA release
[7] = 1 μM isoproterenol, glycerol release, read-out: IC50 3T3 glycerol release

Compound | Tox AML-12 (LDH) seen from [4] [µM] | IC50 [5, 6] [µM] | IC50 [5, 7] [µM] | melting point [°C] | further results
CCOc1ccc(-c2nc(C(=O)OCc3cccs3)cs2)cc1 [Example 152, Thiophen-2-ylmethyl 2-(4-ethoxyphenyl)thiazole-4-carboxylate] |  |  |  |  | IC50 ([1]; fatty acid release, read-out: IC50 hMADS FA release): 12 µM; IC50 ([1]; glycerol release, read-out: IC50 hMADS glycerol release): 10 µM; Tox HepG2 (LDH) seen from [2]: 200 µM; Ki [3]: 8.2 µM
CC#CCOC(=O)c1csc(-c2ccc(OCC)cc2)n1 [Example 209, But-2-yn-1-yl 2-(4-ethoxyphenyl)thiazole-4-carboxylate] | 100 |  |  |  | Tox HepG2 (LDH) seen from [2]: 200 µM
CCOc1ccc(-c2cccc(C(=O)OCc3ccco3)n2)cc1 [Example 190, Furan-2-ylmethyl 6-(4-ethoxyphenyl)picolinate] | 200 | 6 | 25 | 76 to 80 | 
CCOc1ccc(-c2cc(OC)cc(C(=O)OC(C)C)n2)cc1 [Example 35] |  |  |  | 79 to 81 | Ki [3]: 0.5 µM
C#C[C@H](C)OC(=O)c1csc(-c2ccc(OCC)cc2)n1 [Example 210, (S)-But-3-yn-2-yl 2-(4-ethoxyphenyl)thiazole-4-carboxylate] | 200 |  |  |  | 
CCOc1ccc(-c2cccc(C(=O)OCc3cccs3)n2)cc1 [Example 189, Thiophen-2-ylmethyl 6-(4-ethoxyphenyl)picolinate] | 200 |  |  | 93 to 94 | 
CCOc1ccc(-c2nc(C(=O)OCc3ccoc3)cs2)cc1 [Example 216, Furan-3-ylmethyl 2-(4-ethoxyphenyl)thiazole-4-carboxylate] | 50 | 10 | 25 |  | 
COc1cc(C(=O)OC(C)C)nc(-c2ccc(OC(C)C)cc2)c1 [Example 201, Isopropyl 6-(4-isopropoxyphenyl)-4-methoxypicolinate] | 200 |  |  | 70 to 71 | 
C#C[C@@H](C)OC(=O)c1csc(-c2ccc(OCC)cc2)n1 [Example 211, (R)-But-3-yn-2-yl 2-(4-ethoxyphenyl)thiazole-4-carboxylate] | 100 | 4 | 20 |  | 
CCCCOC(=O)c1csc(-c2ccc(OCC)cc2)n1 [Example 212, Butyl 2-(4-ethoxyphenyl)thiazole-4-carboxylate] | 200 |  |  |  | 
CCOc1ccc(-c2nc(C(=O)OCc3ccsc3)cs2)cc1 [Example 215, Thiophen-3-ylmethyl 2-(4-ethoxyphenyl)thiazole-4-carboxylate] |  | 6 | 15 |  | 
